For 32 compounds, Ki results are on record in US10479784B2, “Substituted pyrazin-2-amines as inhibitors of ATR kinase” (Vertex Pharmaceuticals Incorporated, priority 2008, dated 2019).

Broadly, the Ki is the dissociation constant of the complex between target and ligand, obtained from inhibition or displacement.

Chain of full-length ATR (Q13535 whole entry): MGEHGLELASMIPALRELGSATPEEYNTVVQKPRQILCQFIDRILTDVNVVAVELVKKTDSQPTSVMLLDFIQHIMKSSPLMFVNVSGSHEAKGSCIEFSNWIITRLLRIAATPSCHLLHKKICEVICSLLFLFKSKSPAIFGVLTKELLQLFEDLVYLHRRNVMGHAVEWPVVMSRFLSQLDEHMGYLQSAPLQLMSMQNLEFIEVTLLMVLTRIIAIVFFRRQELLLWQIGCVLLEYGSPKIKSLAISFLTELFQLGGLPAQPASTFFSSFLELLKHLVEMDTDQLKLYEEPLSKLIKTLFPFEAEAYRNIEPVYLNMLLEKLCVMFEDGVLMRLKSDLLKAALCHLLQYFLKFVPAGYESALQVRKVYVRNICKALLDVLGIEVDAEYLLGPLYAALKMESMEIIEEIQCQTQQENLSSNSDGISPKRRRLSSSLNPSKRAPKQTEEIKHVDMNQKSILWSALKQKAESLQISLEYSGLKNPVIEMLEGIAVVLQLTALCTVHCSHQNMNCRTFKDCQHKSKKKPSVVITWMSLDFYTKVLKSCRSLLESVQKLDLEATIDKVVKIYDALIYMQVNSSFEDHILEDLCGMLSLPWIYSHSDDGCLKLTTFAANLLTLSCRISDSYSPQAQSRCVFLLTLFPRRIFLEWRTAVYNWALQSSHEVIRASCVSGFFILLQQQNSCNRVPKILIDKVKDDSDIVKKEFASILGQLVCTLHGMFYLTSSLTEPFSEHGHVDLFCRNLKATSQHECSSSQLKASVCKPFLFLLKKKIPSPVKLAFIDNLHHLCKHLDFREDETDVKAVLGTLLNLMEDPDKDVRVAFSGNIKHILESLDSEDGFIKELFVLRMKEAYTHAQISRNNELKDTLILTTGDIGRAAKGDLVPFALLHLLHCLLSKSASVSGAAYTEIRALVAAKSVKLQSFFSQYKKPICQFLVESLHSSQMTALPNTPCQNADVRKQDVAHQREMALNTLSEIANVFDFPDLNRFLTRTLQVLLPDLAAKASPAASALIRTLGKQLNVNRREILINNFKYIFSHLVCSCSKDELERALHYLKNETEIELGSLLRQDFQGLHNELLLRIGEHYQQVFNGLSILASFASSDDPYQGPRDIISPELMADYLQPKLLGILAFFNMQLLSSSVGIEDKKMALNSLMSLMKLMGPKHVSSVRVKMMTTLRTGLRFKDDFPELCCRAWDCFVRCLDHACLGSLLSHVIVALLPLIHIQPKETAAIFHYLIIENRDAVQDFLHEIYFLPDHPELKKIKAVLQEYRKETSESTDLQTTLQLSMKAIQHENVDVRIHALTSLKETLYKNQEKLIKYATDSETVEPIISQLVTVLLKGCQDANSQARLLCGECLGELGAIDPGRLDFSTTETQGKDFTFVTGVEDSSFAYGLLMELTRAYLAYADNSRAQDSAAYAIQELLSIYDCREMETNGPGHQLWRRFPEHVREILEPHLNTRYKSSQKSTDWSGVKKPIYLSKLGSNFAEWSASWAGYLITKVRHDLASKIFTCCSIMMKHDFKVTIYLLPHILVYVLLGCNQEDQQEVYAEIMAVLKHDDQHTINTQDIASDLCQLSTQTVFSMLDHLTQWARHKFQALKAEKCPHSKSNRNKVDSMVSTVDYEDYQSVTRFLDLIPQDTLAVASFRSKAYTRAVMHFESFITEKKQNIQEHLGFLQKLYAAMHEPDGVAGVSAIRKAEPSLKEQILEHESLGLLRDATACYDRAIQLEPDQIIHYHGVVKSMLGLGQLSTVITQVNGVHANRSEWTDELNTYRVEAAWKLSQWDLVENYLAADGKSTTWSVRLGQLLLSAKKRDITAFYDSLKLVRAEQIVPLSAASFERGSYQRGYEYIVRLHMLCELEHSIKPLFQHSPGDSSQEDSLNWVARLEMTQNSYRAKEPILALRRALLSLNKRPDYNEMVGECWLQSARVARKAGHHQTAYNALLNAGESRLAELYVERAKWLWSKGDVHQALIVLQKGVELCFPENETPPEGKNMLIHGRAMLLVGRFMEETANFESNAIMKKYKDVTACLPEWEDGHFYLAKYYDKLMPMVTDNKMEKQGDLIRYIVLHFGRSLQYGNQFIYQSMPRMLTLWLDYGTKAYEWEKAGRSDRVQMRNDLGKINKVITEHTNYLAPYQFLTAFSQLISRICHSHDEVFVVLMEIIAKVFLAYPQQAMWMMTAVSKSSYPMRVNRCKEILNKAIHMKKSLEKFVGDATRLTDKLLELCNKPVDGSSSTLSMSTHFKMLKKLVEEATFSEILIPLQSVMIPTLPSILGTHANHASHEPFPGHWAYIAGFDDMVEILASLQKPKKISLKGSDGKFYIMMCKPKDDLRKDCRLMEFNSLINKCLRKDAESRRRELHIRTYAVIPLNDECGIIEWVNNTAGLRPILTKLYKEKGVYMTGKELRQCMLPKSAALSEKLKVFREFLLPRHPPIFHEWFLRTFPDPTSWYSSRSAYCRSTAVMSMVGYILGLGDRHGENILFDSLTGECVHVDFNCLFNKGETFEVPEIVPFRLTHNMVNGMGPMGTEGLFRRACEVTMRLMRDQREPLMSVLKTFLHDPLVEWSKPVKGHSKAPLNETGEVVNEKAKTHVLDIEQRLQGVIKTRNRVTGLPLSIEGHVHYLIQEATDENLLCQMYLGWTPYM

This experiment deals with full-length ATR (Homo sapiens (Human), UniProt Q13535). In words: ATR Inhibition Assay (radioactive-phosphate incorporation). The class given is biochemical. The note with it: read-out: ATR Ki. In short, it runs like this:
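Full-length human ATR (5 nM) was assayed at 25 °C in 50 mM Tris/HCl pH 7.5, 10 mM MgCl2, 1 mM DTT, with 10 μM [γ-33P]ATP and 800 μM peptide, after 10-min compound preincubation. Reactions were stopped after 24 h, captured on phosphocellulose and counted; Ki(app) came from non-linear regression of initial rates.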
With `CN(C)[C@@H]1CCN(C(=O)c2ccc(-c3cnc(N)c(-c4nnc(-c5ccccc5)o4)n3)cc2F)C1` [IA-5], the Ki is at most 10 nM.

Regarding `CC(=O)Nc1cccc(-c2cnc(N)c(-c3nnc(-c4ccccc4)o3)n2)c1` [IA-66], the Ki is 10 to 100 nM.

For `Nc1ncc(-c2ccccc2-c2ccccc2)nc1-c1nnc(-c2ccccc2)o1` [IA-134, 3-(5-phenyl-1,3,4-oxadiazol-2-yl)-5-(2-phenylphenyl)pyrazin-2-amine], the Ki lay in the range of 100 to 5000 nM.

In the case of `CC(N)C(=O)Nc1nnc(-c2nc(-c3ccc(S(=O)(=O)C(C)C)cc3)cnc2N)o1` (centres unmarked) [IA-272, 2-amino-N-[5-[3-amino-6-(4-isopropylsulfonylphenyl)pyrazin-2-yl]-1,3,4-oxadiazol-2-yl]propanamide], the Ki lay within 100 to 5000 nM.

Regarding `Nc1ncc(-c2ccccc2O)nc1-c1nnc(-c2ccccc2)o1` [IA-61], the Ki was in the range of 10 to 100 nM.

With `CC(C)S(=O)(=O)c1ccc(-c2cnc(N)c(-c3nnc(N4CCC(N)C4)o3)n2)cc1` (centres unmarked) [IA-188, 3-[5-(3-aminopyrrolidin-1-yl)-1,3,4-oxadiazol-2-yl]-5-(4-isopropylsulfonylphenyl)pyrazin-2-amine], the inhibition constant (Ki) was 100 to 5000 nM.

As for `Nc1ncc(-c2cccc(C(F)(F)F)c2)nc1-c1nnc(-c2ccccc2)o1` [IA-96, 3-(5-phenyl-1,3,4-oxadiazol-2-yl)-5-[3-(trifluoromethyl)phenyl]pyrazin-2-amine], the Ki was 100 to 5000 nM.

With `COc1cc(-c2cnc(N)c(C(=O)Nc3ccccc3)n2)ccn1` [Compound I-38, 3-amino-6-(2-methoxypyridin-4-yl)-N-phenylpyrazine-2-carboxamide], the inhibition constant Ki fell in the range of 10 to 100 nM.

As to `CN(C)C(=O)c1ccc(-c2cnc(N)c(-c3nnc(-c4ccc(C(O)CO)cc4)o3)n2)cc1` (centres unmarked) [IA-106, 4-[5-amino-6-[5-[4-(1,2-dihydroxyethyl)phenyl]-1,3,4-oxadiazol-2-yl]pyrazin-2-yl]-N,N-dimethyl-benzamide], the inhibition constant (Ki) lay in the range of 10 to 100 nM.

For `Nc1ncc(-c2cccnc2)nc1C(=O)Nc1ccncc1` [Compound I-98, 3-amino-6-(pyridin-3-yl)-N-(pyridin-4-yl)pyrazine-2-carboxamide], the Ki lay in the range of 100 to 5000 nM.

`CC(C)S(=O)(=O)c1ccccc1-c1cnc(N)c(-c2nnc(-c3ccccc3)o2)n1` [IA-121, 5-(2-isopropylsulfonylphenyl)-3-(5-phenyl-1,3,4-oxadiazol-2-yl)pyrazin-2-amine]: the inhibition constant (Ki) was 100 to 5000 nM.

`Cc1cccc2nc(-c3nc(-c4ccc(S(C)(=O)=O)cc4)cnc3N)[nH]c12` [Compound I-119, 3-(7-methyl-1H-benzo[d]imidazol-2-yl)-5-(4-(methylsulfonyl)phenyl) pyrazin-2-amine]: the inhibition constant Ki lay in the range of 10 to 100 nM.

In the case of `Nc1ncc(-c2ccc(C(=O)N3CCCCC3)cc2)nc1C(=O)Nc1ccccc1` [Compound I-78, 3-amino-N-phenyl-6-(4-(piperidine-1-carbonyl)phenyl)pyrazine-2-carboxamide], the Ki fell in the range of 10 to 100 nM.

Turning to `CC(O)c1cccc(-c2nnc(-c3nc(-c4ccc(C(=O)N(C)C)cc4)cnc3N)o2)c1` (centres unmarked) [IA-275, 4-[5-amino-6-[5-[3-(1-hydroxyethyl)phenyl]-1,3,4-oxadiazol-2-yl]pyrazin-2-yl]-N,N-dimethyl-benzamide], the Ki was in the range of 10 to 100 nM.

As for `CNCc1ccc(-c2nnc(-c3nc(-c4ccc(S(=O)(=O)C(C)C)cc4Cl)cnc3N)o2)cc1` [IA-316, 5-(2-chloro-4-isopropylsulfonyl-phenyl)-3-[5-[4-(methylaminomethyl)phenyl]-1,3,4-oxadiazol-2-yl]pyrazin-2-amine], the inhibition constant (Ki) is at most 10 nM.

With `CN(C)C(=O)c1ccc(-c2cnc(N)c(-c3nnc(-c4ccccc4OCCCO)o3)n2)cc1` [IA-284, 4-[5-amino-6-[5-[2-(3-hydroxypropoxy)phenyl]-1,3,4-oxadiazol-2-yl]pyrazin-2-yl]-N,N-dimethyl-benzamide], the Ki is at most 10 nM.

For the compound `N#Cc1cccc(NC(=O)c2nc(-c3cccnc3)cnc2N)c1` [Compound I-87, 3-amino-N-(3-cyanophenyl)-6-(pyridin-3-yl)pyrazine-2-carboxamide], the Ki lay within 100 to 5000 nM.

On to `NCc1cccc(-c2nnc(-c3nc(-c4cccnc4)cnc3N)[nH]2)c1` [Compound I-143, 3-(5-(3-(aminomethyl)phenyl)-4H-1,2,4-triazol-3-yl)-5-(pyridin-3-yl)pyrazin-2-amine], for which the Ki is 10 to 100 nM.

In the case of `Cc1ccc2nc(-c3nc(-c4ccc(C(=O)N5CCNCC5)cc4)cnc3N)[nH]c2c1` [III-3, (4-(5-amino-6-(6-methyl-1H-benzo[d]imidazol-2-yl)pyrazin-2-yl)phenyl)(piperazin-1-yl)methanone], the Ki fell in the range of 10 to 100 nM.

On to `CS(=O)(=O)c1ccc(-c2cnc(N)c(C(=O)Nc3n[nH]c4ccccc34)n2)cc1` [Compound V-18], for which the Ki is 100 to 5000 nM.

As to `Nc1ncc(-c2cccnc2)nc1-c1nnc(-c2cccs2)[nH]1` [IIIA-4, 5-(pyridin-3-yl)-3-(5-(thiophen-2-yl)-4H-1,2,4-triazol-3-yl)pyrazin-2-amine], the inhibition constant (Ki) fell in the range of 10 to 100 nM.

As to `Nc1ncc(-c2cccnc2)nc1C(=O)Nc1cccc2c1OC(F)(F)O2` [Compound I-99, 3-amino-N-(2,2-difluorobenzo[d][1,3]dioxol-4-yl)-6-(pyridin-3-yl)pyrazine-2-carboxamide], the Ki was 100 to 5000 nM.

`CCc1ccccc1-c1nnc(-c2nc(-c3ccc(C(=O)N(C)C)cc3)cnc2N)o1` [IA-155, 4-(5-amino-6-(5-(2-ethylphenyl)-1,3,4-oxadiazol-2-yl)pyrazin-2-yl)-N,N-dimethylbenzamide]: the inhibition constant Ki was in the range of 10 to 100 nM.

As for `CN1CCC(NC(=O)c2cccc(-c3cnc(N)c(C(=O)Nc4ccccc4)n3)c2)CC1` [Compound I-48, 3-amino-6-(3-(1-methylpiperidin-4-ylcarbamoyl)phenyl)-N-phenylpyrazine-2-carboxamide], the Ki lay within 100 to 5000 nM.

On to `COC(=O)N1CCCN(C(=O)c2ccc(-c3cnc(N)c(-c4nnc(-c5ccccc5)o4)n3)cc2)CC1` [IA-34], for which the inhibitory constant (Ki) was at most 10 nM.

In the case of `CNCc1ccc(-c2nnc(-c3nc(-c4ccc(S(=O)(=O)C(C)C)cn4)cnc3N)o2)cc1` [IA-300, 5-(5-isopropylsulfonyl-2-pyridyl)-3-[5-[4-(methylaminomethyl)phenyl]-1,3,4-oxadiazol-2-yl]pyrazin-2-amine], the Ki is at most 10 nM.

On to `CN(C)[C@@H]1CCN(C(=O)c2ccc(-c3cnc(N)c(-c4nnc(-c5ccccc5)o4)n3)cc2)C1` [IA-10], for which the inhibitory constant (Ki) was at most 10 nM.

Regarding `CS(=O)(=O)Nc1cccc(-c2cnc(N)c(-c3nnc(-c4ccccc4)o3)n2)c1` [IA-144, N-[3-[5-amino-6-(5-phenyl-1,3,4-oxadiazol-2-yl)pyrazin-2-yl]phenyl]methanesulfonamide], the inhibition constant (Ki) fell in the range of 10 to 100 nM.

As for `Nc1ncc(-c2ccc(C(=O)N3CCCNCC3)cc2)nc1C(=O)Nc1nc2ccccc2o1` [Compound V-5], the inhibitory constant (Ki) fell in the range of 10 to 100 nM.

Turning to `Nc1ncc(-c2ccc(C(=O)N3CCC(O)C3)cc2)nc1C(=O)Nc1ccccc1` (centres unmarked) [Compound I-75, 3-amino-6-(4-(3-hydroxypyrrolidine-1-carbonyl)phenyl)-N-phenylpyrazine-2-carboxamide], the Ki lay within 10 to 100 nM.

On to `N#Cc1ccccc1-c1cnc(N)c(-c2nnc(-c3ccccc3)o2)n1` [IA-50], for which the Ki lay within 10 to 100 nM.

For the compound `CC(C)S(=O)(=O)c1ccc(-c2cnc(N)c(-c3nnc(NC4CCCNC4)o3)n2)cc1` (centres unmarked) [IA-199, 5-[3-amino-6-(4-isopropylsulfonylphenyl)pyrazin-2-yl]-N-(3-piperidyl)-1,3,4-oxadiazol-2-amine], the Ki was 100 to 5000 nM.
